Test results published in US12258337B2, “Bicyclic CX3CR1 receptor agonists” (Board of Regents, The University of Texas System, priority 2019, dated 2025).

Key:
hCX3CR1 [1] = biological target: T1, hCX3CR1 (Homo sapiens, UniProt P49238); assay: Ga16 assay, CX3CR1 agonism, Ca2+ sensitive photo-protein readout (FLIPRTETRA); format: cell-based; design: expressed in transfected cells; stably expresses a Ca2+ sensitive photo-protein; conditions: human CX3CR1 cell line
T1 sequence (P49238 1-355): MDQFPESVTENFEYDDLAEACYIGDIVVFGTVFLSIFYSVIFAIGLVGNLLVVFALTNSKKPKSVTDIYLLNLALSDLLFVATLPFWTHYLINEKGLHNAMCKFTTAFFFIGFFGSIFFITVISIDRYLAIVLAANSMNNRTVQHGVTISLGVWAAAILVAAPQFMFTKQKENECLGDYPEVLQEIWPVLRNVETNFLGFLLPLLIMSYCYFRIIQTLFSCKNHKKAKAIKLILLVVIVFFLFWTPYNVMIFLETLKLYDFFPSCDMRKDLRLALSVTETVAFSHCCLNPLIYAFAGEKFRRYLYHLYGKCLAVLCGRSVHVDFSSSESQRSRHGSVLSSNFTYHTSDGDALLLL
In short: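 Cells expressing human, mouse or rat CX3CR1 with a stably expressed Ca2+-sensitive photoprotein were loaded with 10 μM coelenterazine in tyrode buffer pH 7.4 for 3 h at room temperature. Agonist-mode luminescence kinetics were recorded for 90 s after compound injection on FLIPRTETRA. Dose-response runs were done in quadruplicate, with fractalkine as the reference agonist.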

hCX3CR1 [2] = biological target: T1, hCX3CR1; assay: ChAMPion assay (CHO ChAMPion/CX3CR1 K1.6, cAMP/CNG channel, photoprotein luminescence); format: cell-based; design: expressed in transfected cells; stably expresses a Ca2+ sensitive photo-protein; conditions: ChAMPion assay, CHO ChAMPion/CX3CR1 K1.6, Forskolin 3 μM; read-out: hCX3CR1 agonism EC50
Experimental: Buffers and reagents. PBS (D-PBS without calcium and magnesium; EuroClone); Trypsin (Trypsin 0.05%, EDTA 0.02% in PBS; EuroClone); DMSO (Sigma); Tyrode buffer Ca^2+ free: in-house solution (130 mM NaCl, 5 mM KCl, 1 mM MgCl^2, 5 mM NaHCO3, 20 mM HEPES (pH 7.4); sterile filtered and autoclaved); Tyrode buffer 10 mM Ca^2+: in-house solution (130 mM NaCl, 5 mM KCl, 10 mM CaCl2), 1 mM MgCl2, 5 mM NaHCO3, 20 mM HEPES, in water at pH 7.4, sterile filtered); Coelenterazine, native (Biosynth); stock 10 mM; Agonist: Recombinant Human Fractalkine (CX3CL1) (PeproTech); stock: 10 μM in standard Tyrode buffer/BSA 01%; stored at −20° C.
Cell line. The final clone for the hCX3CR1 assay was CHO ChAMPion/CX3CR1 K1.6. ChAMPion technology is based on the co-expression of a Ca^2+ sensitive photoprotein and of a cyclic nucleotide-gated (CNG) channel acting as a cAMP biosensor in a CHO-K1 cell line. CNG channels are non-selective ligand gated cation channels that can be opened by the direct interaction with either cAMP or cGMP, at the intracellular C-terminus site of the channel. Channel opening allows the flux of extracellular calcium into the cell cytoplasm and its transient elevation can be recorded by means of several different calcium indicators. In the chAMPion system, the CNG channel has been modified to display sensitivity to cAMP levels in the physiological range. In addition the calcium influx through the opened channel is immediately detected by the recording of the photoprotein-emitted flash type luminescence signal.
The chAMPion cell line system can monitor the activation of transfected Gαi-coupled receptors, which elicit changes in 3,‘5’-adenosine cyclic monophosphate (cAMP) levels, which in turn is responsible for CNG opening and consequent Ca^2+ influx.
Assay protocol. Experiments were performed in 384 MTP format. Cells were seeded at 10,000 cells/well in 25 μL/well complete growth medium without selection antibiotics in 384-well plates. Twenty-four hours later, cells were assayed for the response to various compounds using the Ca^2+ sensitive photo-protein stably expressed in the cells as readout.
The experiment was performed in a 384-well format according to the following procedure: • 24h after seeding, pre-incubate the cells at room temperature for 1 hour. • Then remove the culture medium. • Load cells with 20 μL/well of Ca^2+ free tyrode buffer+ceolenterazine 5 μM. • Incubate cell plates for 4 hours at RT. • 10 μl/well of 3× concentrated compounds in Ca^2+ free tyrode buffer+Forskolin 9 μM (final Forskolin concentration=3 μM) are applied to the cells (at 10 μl/s). Ten minutes later a second injection is performed: 10 μl/well of Ca^2+ free tyrode buffer+BSA 0.04% (final BSA concentration=0.01%). Twenty minutes later a third injection is performed: 20 μl/well of 10 mM Ca^2+ tyrode buffer (final Ca^2+ concentration was 3.3 mM) and luminescence is recorded for 90 seconds.
Data from FLIPRTETRA measurements are analyzed with the Genedata Screener© software.

SMILES | EC50 (hCX3CR1 [1]) [µM] | EC50 (hCX3CR1 [2]) [µM]
CC(C)(CNC(=O)c1cc2c(s1)CCCCCC2)CN1CCCCC1 [Example 13, N-(2,2-dimethyl-3-piperidin-1-ylpropyl)-4,5,6,7,8,9-hexahydrocycloocta[b]thiophene-2-carboxamide] | 12.3 | 2.2
CC(C)(CNC(=O)c1cc2c(s1)CCCCCC2)CN1CCCC1 [Example 1, N-(2,2-dimethyl-3-pyrrolidin-1-ylpropyl)-4,5,6,7,8,9-hexahydrocycloocta[b]thiophene-2-carboxamide] | 11.5 | 2.1
CN(C)CC(C)(C)CNC(=O)c1cc2c(s1)CCCCCC2 [Example 70, N-[3-(dimethylamino)-2,2-dimethylpropyl]-4,5,6,7,8,9-hexahydrocycloocta[b]thiophene-2-carboxamide] | 17 | 3.1
CN(CCO)CC1(CNC(=O)c2cc3c(s2)CCCCCC3)CCC1 [Example 30, N-[[1-[[2-hydroxyethyl(methyl)amino]methyl]cyclobutyl]methyl]-4,5,6,7,8,9-hexahydrocycloocta[b]thiophene-2-carboxamide] | 10.2 | 0.6
CN(C)CC1(CNC(=O)c2cc3c(s2)CCCCCC3)CC(O)C1 (stereo not shown) [Example 31, N-[[1-[(dimethylamino)methyl]-3-hydroxycyclobutyl]methyl]-4,5,6,7,8,9-hexahydrocycloocta[b]thiophene-2-carboxamide] | 9.4 | 0.89
O=C(NCC1(CN2CCC(O)C2)CCCC1)c1cc2c(s1)CCCCCC2 (racemic) [Example 25, N-[[1-[(3-hydroxypyrrolidin-1-yl)methyl]cyclopentyl]methyl]-4,5,6,7,8,9-hexahydrocycloocta[b]thiophene-2-carboxamide] | 10.5 | 0.7
CN(C)CC1(CNC(=O)c2cc3c(s2)CCCCCC3)CCC1 [Example 23, N-[[1-[(dimethylamino)methyl]cyclobutyl]methyl]-4,5,6,7,8,9-hexahydrocycloocta[b]thiophene-2-carboxamide] | 10.5 | 1.4
O=C(NCC1(CN2CCCC(O)C2)CCCC1)c1cc2c(s1)CCCCCC2 (stereo not shown) [Example 27, N-[[1-[(3-hydroxypiperidin-1-yl)methyl]cyclopentyl]methyl]-4,5,6,7,8,9-hexahydrocycloocta[b]thiophene-2-carboxamide] | 11.3 | 13.1
CN(C)CC1(CNC(=O)c2cc3c(s2)CCCCCC3)CCCC1 [Example 2, N-[[1-[(dimethylamino)methyl]cyclopentyl]methyl]-4,5,6,7,8,9-hexahydrocycloocta[b]thiophene-2-carboxamide] | 9.3 | 1.3

Second part, the compound after the results:

EC50 (hCX3CR1 [1]) [µM] | EC50 (hCX3CR1 [2]) [µM] | SMILES
8.4 | 1.8 | O=C(NCC1(CN2CCCC2)CCCC1)c1cc2c(s1)CCCCCC2 [Example 5, N-[[1-(pyrrolidin-1-ylmethyl)cyclopentyl]methyl]-4,5,6,7,8,9-hexahydrocycloocta[b]thiophene-2-carboxamide]
19.3 | 2.7 | O=C(NCC1(CN2CCCCC2)CCCC1)c1cc2c(s1)CCCCCC2 [Example 15, N-[[1-(piperidin-1-ylmethyl)cyclopentyl]methyl]-4,5,6,7,8,9-hexahydrocycloocta[b]thiophene-2-carboxamide]
9.1 | 0.64 | O=C(NCC1(CN2CCCC2)CC(O)C1)c1cc2c(s1)CCCCCC2 (stereo not shown) [Example 32, N-[[3-hydroxy-1-(pyrrolidin-1-ylmethyl)cyclobutyl]methyl]-4,5,6,7,8,9-hexahydrocycloocta[b]thiophene-2-carboxamide]
6 | 4.4 | O=C(NCC1(CN2CCCC2)CCC1)c1cc2c(s1)CCCCCC2 [Example 21, N-[[1-(pyrrolidin-1-ylmethyl)cyclobutyl]methyl]-4,5,6,7,8,9-hexahydrocycloocta[b]thiophene-2-carboxamide]
8.2 | 0.79 | O=C(NCC1(CN2CCC(O)CC2)CCCC1)c1cc2c(s1)CCCCCC2 [Example 28, N-[[1-[(4-hydroxypiperidin-1-yl)methyl]cyclopentyl]methyl]-4,5,6,7,8,9-hexahydrocycloocta[b]thiophene-2-carboxamide]
